ChEMBL document CHEMBL1773004, “1-[(1-methyl-1H-imidazol-2-yl)methyl]-4-phenylpiperidines as mGluR2 positive allosteric modulators for the treatment of psychosis” (J Med Chem, 2011)
The source made the active and inactive calls. No cut-off for these calls is given here.

Columns and labels:
[1] = target: Metabotropic glutamate receptor 2 (Rattus norvegicus, UniProt P31421); assay: Positive allosteric modulation of rat mGluR2 expressed in HEK293 cells co-expressing Galpha15 G protein assessed as increase in glutamate-induced intracellular calcium release by FLIPR assay; format: functional, cell-based
D(2) dopamine receptor [2] = target: D(2) dopamine receptor (Rattus norvegicus, UniProt P61169); assay: Displacement of [3H]spiperone from dopamine D2 receptor in rat corpus striatum by beta plate scintillation counting; format: tissue-based
[3] = target: Metabotropic glutamate receptor 5 (Homo sapiens) (UniProt P41594); assay: Agonist activity at mGlu5 receptor at up to 10 uM; format: functional
MDCK = assay: Efflux ratio of permeability from […] of MDR1 transfected MDCK cells at 1 uM; format: ADME, cell-based, Canis lupus familiaris; settings: dog
D(2) dopamine receptor [4] = target: D(2) dopamine receptor (Homo sapiens, UniProt P14416); assay: Antagonist activity at human dopamine D2 receptor expressed in CHO cells assessed as inhibition of quinpirole-induced effect; format: functional, cell-based
[5] = target: 5-hydroxytryptamine receptor 2B (Homo sapiens) (UniProt P41595); assay: Binding affinity to 5HT2B receptor at 3.16 uM
hERG (KCNH2) = hERG (KCNH2) (Homo sapiens, UniProt Q12809); assay: Binding affinity to human ERG at 3.16 uM
[6] = target: Metabotropic glutamate receptor 5 (Homo sapiens) (UniProt P41594); assay: Antagonist activity at mGlu5 receptor at up to 10 uM; format: functional
[7] = target: 5-hydroxytryptamine receptor 2A (Homo sapiens) (UniProt P28223); assay: Binding affinity to 5HT2A receptor at 3.16 uM
[8] = target: Metabotropic glutamate receptor 1 (Homo sapiens) (UniProt Q13255); assay: Agonist activity at mGlu1 receptor at up to 10 uM; format: functional
[9] = target: T1, Muscarinic acetylcholine receptor M1 (Homo sapiens) (UniProt P11229); assay: Binding affinity to muscarinic M1 receptor at 3.16 uM
T1 sequence (whole entry): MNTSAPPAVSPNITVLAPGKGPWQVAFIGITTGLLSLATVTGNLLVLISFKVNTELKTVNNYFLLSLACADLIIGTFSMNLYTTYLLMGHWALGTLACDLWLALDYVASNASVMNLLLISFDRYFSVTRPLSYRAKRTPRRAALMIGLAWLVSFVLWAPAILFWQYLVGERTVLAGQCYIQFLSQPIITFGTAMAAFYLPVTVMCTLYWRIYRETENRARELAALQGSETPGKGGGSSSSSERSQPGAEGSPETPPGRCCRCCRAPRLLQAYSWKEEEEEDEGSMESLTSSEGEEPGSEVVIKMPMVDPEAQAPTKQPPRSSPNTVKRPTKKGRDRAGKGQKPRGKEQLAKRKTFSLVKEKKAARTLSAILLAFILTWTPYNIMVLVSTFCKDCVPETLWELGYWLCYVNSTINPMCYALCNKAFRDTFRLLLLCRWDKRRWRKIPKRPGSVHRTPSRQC

[10] = target: Histamine H1 receptor (Homo sapiens) (UniProt P35367); assay: Binding affinity to histamine H1 receptor at 3.16 uM
[11] = target: T2, 5-hydroxytryptamine receptor 1A (Homo sapiens) (UniProt P08908); assay: Binding affinity to 5HT1A receptor at 3.16 uM
T2 sequence (whole entry): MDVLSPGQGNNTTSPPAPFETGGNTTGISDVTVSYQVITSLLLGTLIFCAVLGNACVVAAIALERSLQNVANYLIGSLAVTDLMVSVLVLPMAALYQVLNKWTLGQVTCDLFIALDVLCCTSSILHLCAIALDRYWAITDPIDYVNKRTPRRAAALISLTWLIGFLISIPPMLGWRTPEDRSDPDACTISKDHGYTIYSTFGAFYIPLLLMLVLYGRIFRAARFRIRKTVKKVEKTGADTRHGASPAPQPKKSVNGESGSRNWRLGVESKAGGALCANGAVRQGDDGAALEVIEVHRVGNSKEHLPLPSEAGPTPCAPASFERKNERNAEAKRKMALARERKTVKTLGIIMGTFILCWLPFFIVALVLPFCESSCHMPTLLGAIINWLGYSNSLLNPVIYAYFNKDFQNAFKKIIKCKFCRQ

[12] = target: Metabotropic glutamate receptor 1 (Homo sapiens) (UniProt Q13255); assay: Antagonist activity at mGlu1 receptor at up to 10 uM; format: functional
[13] = target: Metabotropic glutamate receptor 5 (Homo sapiens) (UniProt P41594); assay: Positive allosteric modulation of mGlu5 receptor at up to 10 uM
[14] = Permeability from apical to basolateral side of MDR1 transfected MDCK cells at 1 uM; format: ADME, cell-based, Canis lupus familiaris; settings: dog, read-out: permeability
[15] = target: T3, Alpha-2A adrenergic receptor (Homo sapiens) (UniProt P08913); assay: Binding affinity to adrenergic alpha2A receptor at 3.16 uM
T3 sequence (whole entry): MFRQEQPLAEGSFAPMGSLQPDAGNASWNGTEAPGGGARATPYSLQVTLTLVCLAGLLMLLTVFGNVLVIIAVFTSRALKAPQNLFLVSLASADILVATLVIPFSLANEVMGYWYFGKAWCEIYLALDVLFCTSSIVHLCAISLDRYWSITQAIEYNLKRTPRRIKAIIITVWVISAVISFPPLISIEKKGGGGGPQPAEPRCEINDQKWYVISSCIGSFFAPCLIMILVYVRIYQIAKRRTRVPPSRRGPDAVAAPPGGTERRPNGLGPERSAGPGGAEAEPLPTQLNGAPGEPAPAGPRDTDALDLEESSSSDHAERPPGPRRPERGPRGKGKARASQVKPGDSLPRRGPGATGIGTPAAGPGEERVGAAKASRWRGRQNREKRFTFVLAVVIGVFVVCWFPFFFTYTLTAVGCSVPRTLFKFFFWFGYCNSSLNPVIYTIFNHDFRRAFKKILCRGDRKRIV

HEK293 = assay: Selectivity ratio of Ki for dopamine D2 receptor in rat corpus striatum to EC50 for rat mGluR2 expressed in HEK293 cells; format: cell-based
[16] = Plasma clearance in rat at 1 mg/kg, iv; format: ADME, organism-based; parameters: dose 1 mg/kg, route intravenous
Brain = assay: Fraction unbound in rat brain by LC-MS/MS assay; format: ADME, tissue-based
[17] = Ratio of drug level in brain to plasma in rat at 3.2 mg/kg, sc after 60 mins; format: ADME, organism-based; parameters: dose 3.2 mg/kg, route subcutaneous
[18] = Oral bioavailability in rat at 10 mg/kg; format: ADME, organism-based; settings: in vivo
[19] = Ratio of drug level in brain to plasma in mouse at 10 mg/kg, sc after 60 mins; format: ADME, organism-based; parameters: dose 10 mg/kg, route subcutaneous
[20] = target: Metabotropic glutamate receptor 2 (Homo sapiens, UniProt Q14416); assay: Positive allosteric modulation of human mGluR2 expressed in HEK293 cells co-expressing Galpha15 G protein assessed as increase in glutamate-induced intracellular calcium release by FLIPR assay; format: functional, cell-based
[21] = Cmax in rat brain at 10 mg/kg, po; format: ADME, organism-based; parameters: dose 10 mg/kg, route oral

Chain of Metabotropic glutamate receptor 1 (Homo sapiens) (Q13255 19-1194 limits assumed): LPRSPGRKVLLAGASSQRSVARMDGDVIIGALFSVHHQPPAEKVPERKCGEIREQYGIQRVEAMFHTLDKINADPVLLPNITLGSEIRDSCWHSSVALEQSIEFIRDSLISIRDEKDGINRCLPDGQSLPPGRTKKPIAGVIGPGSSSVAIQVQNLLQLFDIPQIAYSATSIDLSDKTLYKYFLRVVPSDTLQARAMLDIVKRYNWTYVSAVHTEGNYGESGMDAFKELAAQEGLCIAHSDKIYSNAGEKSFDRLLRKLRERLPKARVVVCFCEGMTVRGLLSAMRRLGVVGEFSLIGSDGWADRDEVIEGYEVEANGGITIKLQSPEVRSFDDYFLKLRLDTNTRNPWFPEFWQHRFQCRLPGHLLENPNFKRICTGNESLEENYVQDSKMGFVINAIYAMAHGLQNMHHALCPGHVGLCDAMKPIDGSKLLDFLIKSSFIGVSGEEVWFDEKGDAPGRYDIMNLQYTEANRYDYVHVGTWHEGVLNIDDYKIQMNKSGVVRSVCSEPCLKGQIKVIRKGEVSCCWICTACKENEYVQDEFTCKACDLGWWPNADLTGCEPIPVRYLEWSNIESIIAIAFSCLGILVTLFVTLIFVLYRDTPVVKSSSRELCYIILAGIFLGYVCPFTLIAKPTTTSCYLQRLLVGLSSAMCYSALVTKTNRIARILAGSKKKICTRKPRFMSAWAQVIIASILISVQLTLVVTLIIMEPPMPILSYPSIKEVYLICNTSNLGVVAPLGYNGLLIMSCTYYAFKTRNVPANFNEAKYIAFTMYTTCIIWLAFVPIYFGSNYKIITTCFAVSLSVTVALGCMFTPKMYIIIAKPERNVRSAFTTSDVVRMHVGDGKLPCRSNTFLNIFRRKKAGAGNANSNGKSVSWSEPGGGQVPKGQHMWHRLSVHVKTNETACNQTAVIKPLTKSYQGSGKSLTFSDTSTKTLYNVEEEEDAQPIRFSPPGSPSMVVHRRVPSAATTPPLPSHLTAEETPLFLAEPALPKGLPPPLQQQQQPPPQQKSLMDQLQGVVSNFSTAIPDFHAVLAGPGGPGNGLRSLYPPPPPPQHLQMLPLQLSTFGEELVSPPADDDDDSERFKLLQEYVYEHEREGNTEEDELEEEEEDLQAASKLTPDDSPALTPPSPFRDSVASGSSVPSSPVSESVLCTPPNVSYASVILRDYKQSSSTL
Chain of Metabotropic glutamate receptor 2 (Rattus norvegicus, UniProt P31421) (P31421 whole entry): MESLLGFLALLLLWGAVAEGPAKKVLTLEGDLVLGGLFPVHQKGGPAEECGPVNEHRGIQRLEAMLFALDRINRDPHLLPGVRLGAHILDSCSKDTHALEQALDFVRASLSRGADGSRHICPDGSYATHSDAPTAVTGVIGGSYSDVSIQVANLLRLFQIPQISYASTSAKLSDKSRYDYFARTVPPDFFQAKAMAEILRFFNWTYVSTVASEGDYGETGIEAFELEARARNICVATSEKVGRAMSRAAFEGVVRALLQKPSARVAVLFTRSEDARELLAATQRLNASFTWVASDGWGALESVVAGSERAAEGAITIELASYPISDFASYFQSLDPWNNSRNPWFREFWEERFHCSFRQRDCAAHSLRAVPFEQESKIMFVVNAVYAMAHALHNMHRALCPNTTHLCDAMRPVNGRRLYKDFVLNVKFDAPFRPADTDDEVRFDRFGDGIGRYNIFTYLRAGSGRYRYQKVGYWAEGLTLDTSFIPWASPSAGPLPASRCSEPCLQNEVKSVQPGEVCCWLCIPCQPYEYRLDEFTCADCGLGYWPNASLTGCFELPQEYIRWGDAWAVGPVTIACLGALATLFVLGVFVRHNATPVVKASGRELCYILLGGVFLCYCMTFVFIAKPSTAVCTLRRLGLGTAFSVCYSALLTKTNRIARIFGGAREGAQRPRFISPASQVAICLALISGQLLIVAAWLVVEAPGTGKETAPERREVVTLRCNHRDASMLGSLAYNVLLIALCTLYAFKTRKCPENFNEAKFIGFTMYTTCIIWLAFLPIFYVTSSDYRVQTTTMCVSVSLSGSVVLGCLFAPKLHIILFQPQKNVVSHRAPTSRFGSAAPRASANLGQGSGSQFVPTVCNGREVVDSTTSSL
Chain of D(2) dopamine receptor (Rattus norvegicus, UniProt P61169) (P61169 whole entry): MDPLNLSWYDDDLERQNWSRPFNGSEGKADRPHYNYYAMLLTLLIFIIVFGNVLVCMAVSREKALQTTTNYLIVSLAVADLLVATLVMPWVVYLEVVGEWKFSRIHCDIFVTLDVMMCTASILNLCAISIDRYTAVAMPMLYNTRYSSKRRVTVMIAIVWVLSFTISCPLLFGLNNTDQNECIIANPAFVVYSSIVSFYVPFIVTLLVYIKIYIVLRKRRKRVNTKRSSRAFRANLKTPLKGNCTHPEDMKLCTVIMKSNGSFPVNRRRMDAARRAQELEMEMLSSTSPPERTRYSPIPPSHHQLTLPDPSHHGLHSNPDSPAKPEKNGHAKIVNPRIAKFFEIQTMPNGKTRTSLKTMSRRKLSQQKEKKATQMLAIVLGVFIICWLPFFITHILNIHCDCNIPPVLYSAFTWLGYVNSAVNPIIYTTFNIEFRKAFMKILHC
Chain of Metabotropic glutamate receptor 5 (Homo sapiens) (P41594 21-1212 limits assumed): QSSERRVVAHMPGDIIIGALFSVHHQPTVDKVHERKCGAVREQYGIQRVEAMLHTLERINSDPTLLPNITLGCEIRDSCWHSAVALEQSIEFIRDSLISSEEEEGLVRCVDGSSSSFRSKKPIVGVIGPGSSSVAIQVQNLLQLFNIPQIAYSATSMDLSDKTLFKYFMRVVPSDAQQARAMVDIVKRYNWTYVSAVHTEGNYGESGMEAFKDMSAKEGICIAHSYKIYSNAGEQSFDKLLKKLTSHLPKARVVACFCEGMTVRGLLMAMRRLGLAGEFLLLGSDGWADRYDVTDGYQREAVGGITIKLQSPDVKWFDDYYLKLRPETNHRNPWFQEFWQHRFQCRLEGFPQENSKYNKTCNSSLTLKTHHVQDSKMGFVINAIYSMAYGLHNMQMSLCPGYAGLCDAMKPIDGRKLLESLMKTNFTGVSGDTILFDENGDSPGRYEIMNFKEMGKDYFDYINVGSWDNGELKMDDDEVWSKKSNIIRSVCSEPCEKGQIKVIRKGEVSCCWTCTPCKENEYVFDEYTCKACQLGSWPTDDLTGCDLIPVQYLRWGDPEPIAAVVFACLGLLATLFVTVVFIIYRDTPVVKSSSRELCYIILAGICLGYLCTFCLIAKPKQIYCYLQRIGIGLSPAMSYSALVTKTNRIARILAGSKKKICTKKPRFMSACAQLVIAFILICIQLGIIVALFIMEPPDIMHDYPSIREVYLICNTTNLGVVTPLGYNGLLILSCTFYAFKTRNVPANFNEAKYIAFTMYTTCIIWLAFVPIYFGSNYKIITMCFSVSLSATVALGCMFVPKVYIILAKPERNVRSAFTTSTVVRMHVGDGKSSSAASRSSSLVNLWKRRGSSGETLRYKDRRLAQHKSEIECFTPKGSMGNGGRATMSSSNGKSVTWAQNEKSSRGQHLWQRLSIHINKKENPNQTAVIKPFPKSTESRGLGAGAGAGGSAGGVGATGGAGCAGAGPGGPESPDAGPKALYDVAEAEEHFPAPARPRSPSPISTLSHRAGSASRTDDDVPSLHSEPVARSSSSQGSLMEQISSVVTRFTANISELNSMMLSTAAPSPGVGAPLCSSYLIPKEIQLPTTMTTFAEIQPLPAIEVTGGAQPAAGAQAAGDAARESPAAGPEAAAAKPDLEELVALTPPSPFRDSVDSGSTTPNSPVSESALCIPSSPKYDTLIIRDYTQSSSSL
Chain of hERG (KCNH2) (Q12809 whole entry): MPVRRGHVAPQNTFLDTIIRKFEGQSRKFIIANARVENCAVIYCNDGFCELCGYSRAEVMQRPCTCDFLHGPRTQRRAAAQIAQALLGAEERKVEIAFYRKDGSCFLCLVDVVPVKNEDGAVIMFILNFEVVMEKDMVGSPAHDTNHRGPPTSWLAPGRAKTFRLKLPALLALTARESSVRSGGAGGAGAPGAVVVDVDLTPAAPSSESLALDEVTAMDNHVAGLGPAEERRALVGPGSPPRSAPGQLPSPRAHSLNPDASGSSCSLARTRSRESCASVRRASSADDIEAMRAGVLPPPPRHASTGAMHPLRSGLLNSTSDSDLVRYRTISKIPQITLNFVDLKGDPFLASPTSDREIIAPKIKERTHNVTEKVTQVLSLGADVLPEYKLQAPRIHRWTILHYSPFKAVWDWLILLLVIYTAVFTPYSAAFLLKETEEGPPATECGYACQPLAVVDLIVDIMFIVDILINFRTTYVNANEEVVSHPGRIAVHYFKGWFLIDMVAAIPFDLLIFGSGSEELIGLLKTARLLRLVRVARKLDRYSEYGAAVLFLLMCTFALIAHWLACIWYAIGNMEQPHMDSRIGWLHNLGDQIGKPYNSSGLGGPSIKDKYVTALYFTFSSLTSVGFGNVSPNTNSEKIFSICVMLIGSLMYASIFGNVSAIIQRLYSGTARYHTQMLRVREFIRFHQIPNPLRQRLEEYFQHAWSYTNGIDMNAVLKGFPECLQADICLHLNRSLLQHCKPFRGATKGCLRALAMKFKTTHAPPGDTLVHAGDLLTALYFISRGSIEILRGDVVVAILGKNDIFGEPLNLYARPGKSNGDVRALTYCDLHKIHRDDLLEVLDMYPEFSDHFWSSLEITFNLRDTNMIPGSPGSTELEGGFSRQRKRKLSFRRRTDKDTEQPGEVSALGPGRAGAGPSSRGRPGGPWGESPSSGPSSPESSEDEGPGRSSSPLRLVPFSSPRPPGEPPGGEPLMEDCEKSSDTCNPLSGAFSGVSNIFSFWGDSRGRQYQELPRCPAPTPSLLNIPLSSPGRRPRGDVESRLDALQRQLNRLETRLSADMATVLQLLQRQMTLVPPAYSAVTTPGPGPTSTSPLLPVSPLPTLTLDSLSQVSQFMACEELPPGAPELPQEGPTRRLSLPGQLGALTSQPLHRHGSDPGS

In the case of C[C@H]1CN(Cc2nc3ncccc3n2C)CC[C@H]1c1ccc(Cl)cc1F, the EC50 [1] is reported as 28 nM and the Ki (D(2) dopamine receptor [2]) is reported as 1620 nM.

In the case of C[C@H]1CN(Cc2nc3ncccc3n2C)CC[C@H]1c1ccc(C(F)(F)F)cc1 (racemic), the EC50 [1] is reported as 111 nM and the Ki (D(2) dopamine receptor [2]) is reported as over 2800 nM.

In the case of Cn1c(CN2CCC(c3ccccc3C(F)(F)F)CC2)nc2ccccc21, the EC50 [1] is reported as 109 nM.

In the case of COc1ccccc1C1CCN(Cc2nc3ccccc3n2C)CC1, the Activity [3] is reported as “inactive”, the Ratio (MDCK) is reported as 1.28 and the EC50 (D(2) dopamine receptor [4]) is reported as 951 nM. For the same compound, the inhibition [5] was under 50%, the inhibition at 3.16 µM (hERG (KCNH2)) was under 50% and the EC50 [1] was 87 nM. For the same compound, the Activity [6] was “inactive”, the Ki (D(2) dopamine receptor [2]) was 426 nM and the inhibition [7] was under 50%. The Activity [8] was “inactive”, the inhibition [9] was under 50% and the inhibition [10] was under 50%. For the same compound, the inhibition [11] was under 50%, the Activity [12] was “inactive” and the Activity [13] was “inactive”. For the same compound, the Papp A→B at 1 µM [14] was 25.8 ×10⁻⁶ cm/s and the inhibition [15] was under 50%.

CNC(=O)c1cccc(C2CCN(Cc3nc4ccccc4n3C)CC2)c1 gave an EC50 [1] of over 10000 nM.

Work on Cn1c(CN2CCC(c3ccc(F)cc3)CC2)nc2ccccc21 yielded an EC50 [1] of 159 nM and a Ki (D(2) dopamine receptor [2]) of 24 nM.

With Cn1c(CN2CCC(c3ccc(C(F)(F)F)cc3)CC2)nc2cccnc21 the EC50 [1] was 285 nM.

With Cn1c(CN2CCC(c3ccccc3F)CC2)nc2ccccc21 the EC50 [1] was 22 nM.

Compound Cn1c(CN2CCC(c3ccc(C(F)(F)F)cc3)C(O)C2)nc2ncccc21 (trans isomer) has an EC50 [1] of over 10000 nM.

Cn1c(CN2CCC(c3ccccc3)CC2)nc2ccccc21 showed an EC50 [1] of 212 nM.

In the case of Cn1c(CN2CCC(c3ccc(C(F)(F)F)cc3)CC2)nc2ccccc21, the EC50 [1] is reported as 78 nM and the Ki (D(2) dopamine receptor [2]) is reported as 561 nM.

Compound COc1cc(C(F)(F)F)ccc1C1CCN(Cc2nc3ncccc3n2C)CC1 has an EC50 [1] of 13 nM and a Ki (D(2) dopamine receptor [2]) of 2430 nM.

For Cn1c(CN2CCC(c3ccc(C(F)(F)F)cc3)CC2)nc2ccncc21, the EC50 [1] was 196 nM.

Compound COc1cc(C(F)(F)F)ccc1[C@H]1CCN(Cc2nc3ncccc3n2C)C[C@H]1C has an EC50 [1] of 787 nM.

In the case of Cn1c(CN2CCC(c3cccc(F)c3)CC2)nc2ccccc21, the EC50 [1] is reported as 3310 nM.

For C[C@H]1CN(Cc2nc3ncccc3n2C)CC[C@H]1c1ccc(C(F)(F)F)cc1F, the Activity [3] was “inactive”, the Ratio (MDCK) was 1.7 and the Ratio (HEK293) was over 584. For the same compound, the clearance [16] was 7.5 mL/min/kg, the EC50 [1] was 9 nM and the Activity [6] was “inactive”. For the same compound, the Fu (Brain) was 0.5%, the Ki (D(2) dopamine receptor [2]) was over 5260 nM and the Kp at 1 h [17] was 7. For the same compound, the bioavailability [18] was 74%, the Kp at 1 h [19] was 1.9 and the Activity [8] was “inactive”. The Activity [12] was “inactive”, the EC50 [20] was 3 nM and the Cmax [21] was 3.12 µM. For the same compound, the Activity [13] was “inactive” and the Papp A→B at 1 µM [14] was 26 ×10⁻⁶ cm/s.

With Cn1c(CN2CCC(c3ccc(C(F)(F)F)cc3F)CC2)nc2ncccc21 the EC50 [1] was 25.1 nM and the Ki (D(2) dopamine receptor [2]) was 1780 nM.
